Drawing on US12049474B2, “Nucleoside prodrugs and uses related thereto” (Emory University, priority 2019, dated 2024), this text covers half-life and IC50 for 16 compounds.

Where two headings read alike, the source gives them in different places.

A short description of data set [1]: Metabolic stability assay in human liver microsomes (HLM). In kind it is in vitro ADME. To be noted: pH 7.4, 3 μM test compound, NADPH, sampled 0-120 min, read-out: HLM t1/2. The procedure: The LC-MS/MS analysis was performed using Agilent 1260 Infinity II HPLC, coupled with an Agilent G6460 triple quadrupole mass spectrometer (Agilent Technologies, USA). All the data were acquired employing Agilent 6460 Quantitative Analysis data processing software.
Reverse-phase HPLC separation for each compound was achieved either on an Agilent Porshell 120 EC-C8 column (2.1×50 mm, 2.7 μm), or on an Agilent Zorbax XDB C18 column (2.1×50 mm, 3.5 μm) with a mobile phase composed of methanol-water-formic acid or acetonitrile-water-formic acid (0.1%) at a flow rate of 0.5 mL/min (changes for some compounds). Each method was developed in the presence of an internal standard (ISTD) d5-7-ethoxy coumarin. The column temperature was maintained at 40° C. for most of the samples otherwise noted. The detection was operated in the Agilent JetStream electrospray positive ionization using multiple reaction monitoring mode (MRM).
Other MS conditions were as follows: dwell time 100 ms; gas flow 10 L/min; nebulizer pressure 45 psi; delta EMV 200 V; fragmentor voltage and collision energy for individual compounds vary.
Test compounds were dissolved in 100% DMSO or 100% MeOH to make 10 mM stock solutions. Verapamil (Sigma Aldrich) aided as a positive control and was dissolved in 100% DMSO to make 10 mM stock solutions. The 10 mM stock solution of test and control compounds were further diluted in potassium phosphate buffer (100 mM, pH 7.4) to 500 μM to ensure the organic solvent content was <0.2%. Human liver microsomes (HLMs) were purchased from Xenotech at 20 mg/mL. NADPH (Sigma Aldrich) 10 mM stocks were prepared in deionized water.
The HLM assay was prepared in a 1.5 mL Eppendorf tube with a final volume of 1100 μL for duplicate runs. Each reaction contained phosphate buffer (928.4 μL), liver microsomes (55 μL), and test compound resulting in a final concentration of 3 μM (6.6 μL of 500 μM). The reaction was initiated with 110 μL of 10 mM NADPH. Aliquots (100 μL) were removed in duplicate at 0, 15, 30, 60, 120 min (for prodrug compounds) and 0, 5, 10, 15, 30 min (verapamil, positive control compound) time intervals and quenched in cold […] of 100% methanol which contained internal standard (ISTD: d5-7-ethoxy coumarin 4 μM). Before centrifugation each of the aliquoted tubes were vortexed to make sure compounds were in the solution. The aliquots were centrifuged at 12,000 g for 5 min and the supernatant removed and placed in an LC-MS vial. Each time point was assessed using LC-MS and the area, based on the extracted ion, was integrated with respect to the ISTD. Positive controls were conducted at a final volume of 550 μL to give each time point in a single run. A no-NADPH negative control with test or control compound was performed in a single run (150 μL) at the longest time point. Controls were processed and analyzed like the test compounds. Each time point was run in duplicates followed by in-between blank washes to avoid the carryover and to equilibrate the column.
(Liver microsomes are vesicles of endoplasmic reticulum, rich in cytochrome P450 enzymes.)

Data set [2] addresses CYP2D6 (Homo sapiens (Human), UniProt P10635). The data set can be described thus: biochemical. In kind it is biochemical. Here is the method:
(§1) The CYP450 inhibition assays utilized microsomes from insect cells expressing human recombinant individual cDNA-expressed CYP isoforms 3A4 and 2D6, as well as the fluorogenic probe that produces fluorescent metabolite. Standard inhibitors were co-incubated with fluorogenic substrates and their inhibitory potential (IC50) was determined. Assay conditions in terms of CYP450 protein concentration and time of incubation were standardized, enzyme kinetics parameters of each fluorescent probe substrate were estimated and IC50 values of inhibitors were determined and validated on different days to check reproducibility.
(§2) A 100 mM sodium phosphate buffer was prepared and adjusted to pH 7.4. In a separate falcon tube, a 2× enzyme/substrate (E/S) solution was prepared in phosphate buffer. The final concentration of CYP2D6 (CORNING®) and […] (AMMC) was 10 nM and 4 μM, and CYP3A4 (CORNING®) and 7-benzyloxy-4-(trifluoromethyl) coumarin (BFC) was 20 nM and 40 μM, respectively. In a separate falcon tube, a 2×NADPH regenerating system (NRS) was prepared in phosphate buffer. The final concentration for each component in the assay was as follows: • CYP2D6 assay: 0.008 mM NADPH, 3.3 mM glucose 6-phosphate, 0.4 U of glucose-6-phosphate dehydrogenase per mL
(§3) Both enzymatic assays were conducted in a 96-well microtiter plate (Black, CORNING® COSTAR®) with a final volume of 100 μL. Preparation of the plate began with the addition of 74 μL of the E/S in the first well, and 50 μL to all subsequent wells (from 2-11). The test compounds (1 μL) were dissolved in the first well to give the first row a final volume of 75 μL. A 1:3 serial dilution of the test compound was conducted by removing 25 μL from the first well and diluting it with the second and so forth until the tenth row. Final concentrations yielded a range from 200 μM-0.01 μM. Well no. 11 contained no inhibitor, and well no. 12 contained no enzyme. Both were used as controls for background fluorescence. The plate was incubated for 30 min at 37° C. After incubation, the reaction was initiated by the addition of 50 μL of the 2×NRS to each well.
Immediately (within 1 min) the fluorescence was measured using a microplate reader (BIOTEK® Synergy Neo2). CYP2D6 was monitored at Ex/Em=410/460 nm, and CYP3A4 monitored at Ex/Em=410/538 nm in kinetic mode that scanned every 5 min for 60 mins. Data was exported and analyzed using Graph Pad Prism 7. […] The IC50 value was derived after the data was fitted on a 10-point curve using a four-parameter logistic regression model.

The target of data set [3] is CYP3A4 (Homo sapiens (Human), UniProt P08684). The data set can be described thus: Fluorometric CYP450 enzyme inhibition assay, CYP3A4. In kind it is biochemical. Here is the method: as §1, §2
as §3, with “The test compounds (1 μL) were dissolved in the first well to give the first row a final volume of 75 μL.” left out
Immediately (within 1 min) the fluorescence was measured using a microplate reader (BIOTEK® Synergy Neo2). […] Data was exported and analyzed using Graph Pad Prism 7. […] The IC50 value was derived after the data was fitted on a 10-point curve using a four-parameter logistic regression model.

Where [4] appears, read: human recombinant CYP2D6, AMMC substrate, read-out: CYP450 IC50 2D6.
[5] abbreviates: human recombinant CYP3A4, BFC substrate, read-out: CYP450 IC50 3A4.

Broadly, the IC50 is the midpoint of a concentration-inhibition curve.

Chain of CYP2D6 (P10635 whole entry, canonical isoform): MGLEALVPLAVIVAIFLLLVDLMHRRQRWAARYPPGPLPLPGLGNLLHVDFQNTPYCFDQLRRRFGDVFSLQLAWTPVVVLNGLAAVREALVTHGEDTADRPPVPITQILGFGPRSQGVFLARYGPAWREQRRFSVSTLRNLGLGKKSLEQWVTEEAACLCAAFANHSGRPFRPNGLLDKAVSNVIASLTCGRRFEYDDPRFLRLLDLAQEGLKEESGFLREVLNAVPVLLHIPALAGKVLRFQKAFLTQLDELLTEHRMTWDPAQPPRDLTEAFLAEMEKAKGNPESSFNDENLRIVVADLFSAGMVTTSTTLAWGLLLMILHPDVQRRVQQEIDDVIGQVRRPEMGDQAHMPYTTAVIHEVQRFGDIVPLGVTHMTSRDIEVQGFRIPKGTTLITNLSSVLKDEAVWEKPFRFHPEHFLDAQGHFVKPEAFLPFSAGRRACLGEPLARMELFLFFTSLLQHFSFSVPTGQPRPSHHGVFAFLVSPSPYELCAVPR
Chain of CYP3A4 (P08684 whole entry): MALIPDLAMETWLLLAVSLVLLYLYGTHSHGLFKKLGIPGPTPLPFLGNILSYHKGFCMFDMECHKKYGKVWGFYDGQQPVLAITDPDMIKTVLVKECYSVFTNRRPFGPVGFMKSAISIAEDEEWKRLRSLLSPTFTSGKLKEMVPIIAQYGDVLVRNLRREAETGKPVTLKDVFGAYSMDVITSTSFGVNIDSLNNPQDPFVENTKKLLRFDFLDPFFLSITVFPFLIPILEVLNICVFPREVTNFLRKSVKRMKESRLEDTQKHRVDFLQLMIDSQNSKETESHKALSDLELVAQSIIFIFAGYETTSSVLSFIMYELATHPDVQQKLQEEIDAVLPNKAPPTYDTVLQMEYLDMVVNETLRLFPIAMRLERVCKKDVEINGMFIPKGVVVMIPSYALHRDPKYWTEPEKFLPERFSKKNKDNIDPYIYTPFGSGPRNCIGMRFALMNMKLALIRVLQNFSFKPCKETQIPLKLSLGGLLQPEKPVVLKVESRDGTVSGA

Regarding `CCCCCCCCCCCCCCCOCCCCOP(=O)(O)COC(C)Cn1cnc2c(N)ncnc21.N` (racemic) [NP-PD-150, Ammonium 4-pentadecoxybutoxy-[[rac-(1R)-2-(6-aminopurin-9-yl)-1-methyl-ethoxy]methyl]phosphinate], the half-life at 3 µM in data set [1] was found to be 48 min.
Still for that read-out and setting: the value for `CCCCCCCCCCCCCCOCCCCCOP(=O)(O)COC(C)Cn1cnc2c(N)ncnc21.N` (racemic) [NP-PD-154, Ammonium [rac-(1R)-2-(6-aminopurin-9-yl)-1-methyl-ethoxy]methyl-(5-tetradecoxypentoxy)phosphinate] was 29 min; that for `CCCCCCCCCCCCCCCCCOCCOP(=O)(O)COC(C)Cn1cnc2c(N)ncnc21.N` (racemic) [NP-PD-157, Ammonium 2-heptadecoxyethoxy-[[rac-(1R)-2-(6-aminopurin-9-yl)-1-methyl-ethoxy]methyl]phosphinate] was 35 min.
With `C#CCCCCCCCCCCCCCCCCSCCCOP(=O)(O)CO[C@H](C)Cn1cnc2c(N)ncnc21.N` [BI-1-057, Ammonium 3-(octadec-17-yn-1-ylthio)propyl (R)-(((1-(6-amino-9H-purin-9-yl)propan-2-yl)oxy)methyl)phosphonate], the IC50 is 20.2 µM in data set [2] (setting [4]) and 37 µM in data set [3] (setting [5]). In data set [1], the half-life at 3 µM is greater than 120 min.
Turning to `N.[2H]C([2H])([2H])C([2H])([2H])CCCCCCCCCCCCCOP(=O)(O)CO[C@H](C)Cn1cnc2c(N)ncnc21` [EJM-8-030, Ammonium pentadecyl-14,14,15,15,15-d5 (R)-(((1-(6-amino-9H-purin-9-yl)propan-2-yl)oxy)methyl)phosphonate], the figures for the IC50 in data set [2] and in data set [3] were 38.3 µM and 52.2 µM, respectively. In data set [1], the half-life at 3 µM was 20 min.
Turning to `N.[2H]C([2H])([2H])CCCCCCCCCCCCCCCOP(=O)(O)CO[C@H](C)Cn1cnc2c(N)ncnc21` [EJM-8-036, Ammonium hexadecyl-16,16,16-d3 (R)-(((1-(6-amino-9H-purin-9-yl)propan-2-yl)oxy)methyl)phosphonate], the values for the IC50 in data set [2] and in data set [3] were 20.6 µM and 87.4 µM, respectively. In data set [1], the half-life at 3 µM is 21 min.
With `C[C@H](Cn1cnc2c(N)ncnc21)OCP(=O)(O)OCCCSCCCCCCCCCCCSc1ccccc1.N` [MD-1-119, Ammonium 3-((11-(phenylthio)undecyl)thio)propyl (R)-(((1-(6-amino-9H-purin-9-yl)propan-2-yl)oxy)methyl)phosphonate], the IC50 in data set [2] (setting [4]) is 36.3 µM; in data set [3] (setting [5]), 11 µM. Further, the half-life at 3 µM in data set [1] came out at 12 min.
Turning to `CCCCCCCCCCSCCCCCCCCCOP(=O)(O)CO[C@H](C)Cn1cnc2c(N)ncnc21.N` [MD-1-122, Ammonium 9-(decylthio)nonyl (R)-(((1-(6-amino-9H-purin-9-yl)propan-2-yl)oxy)methyl)phosphonate], in data set [1], the half-life at 3 µM came out at 13 min.
In the case of `CCCCCCCCCCCCCCCCSCCCOP(=O)(O)CO[C@H](C)Cn1cnc2c(N)ncnc21` [MD-1-123, Ammonium 3-(hexadecylthio)propyl (R)-(((1-(6-amino-9H-purin-9-yl)propan-2-yl)oxy)methyl) phosphonate], the IC50 worked out at 110 µM in data set [2] (setting [4]) and 58 µM in data set [3] (setting [5]). For the same compound, the half-life at 3 µM in data set [1] is 42 min.
Take `C#CCCCCCCCCCCCCCCSCCCOP(=O)(O)CO[C@H](C)Cn1cnc2c(N)ncnc21` [MD-1-182, Ammonium 3-(hexadec-15-yn-1-ylthio)propyl (R)-(((1-(6-amino-9H-purin-9-yl)propan-2-yl)oxy)methyl) phosphonate]: in data set [1], the half-life at 3 µM came out at 96 min.
Regarding `C[C@H](Cn1cnc2c(N)ncnc21)OCP(=O)(O)OCCCSCCCCCCCCCCC#Cc1ccccc1.N` [MD-1-183, Ammonium 3-((12-phenyldodec-11-yn-1-yl)thio)propyl (R)-(((1-(6-amino-9H-purin-9-yl)propan-2-yl)oxy)methyl)phosphonate], the IC50 in data set [2] (setting [4]) was greater than 20 µM. Besides, in data set [1], the half-life at 3 µM was 72 min.
Taken in the same sequence, the figures for `C[C@H](Cn1cnc2c(N)ncnc21)OCP(=O)(O)OCCCSCCCCCCCCCCCCc1ccccc1.N` [MD-1-184, Ammonium 3-((12-phenyldodecyl)thio)propyl (R)-(((1-(6-amino-9H-purin-9-yl)propan-2-yl)oxy)methyl)phosphonate] were greater than 20 µM and 69 min.
Take `CCCCCCCCCCCCCCCCCCSCCCOP(=O)(O)CO[C@H](C)Cn1cnc2c(N)ncnc21` [MD-1-185, Ammonium 3-(octadecylthio)propyl (R)-(((1-(6-amino-9H-purin-9-yl)propan-2-yl)oxy)methyl) phosphonate]: the half-life at 3 µM in data set [1] is greater than 120 min.
On the same count and under the same terms, the value for `CCCCCCCCCCCCCCCCCCCCSCCCOP(=O)(O)CO[C@H](C)Cn1cnc2c(N)ncnc21.N` [MD-1-186, Ammonium 3-(icosylthio)propyl (R)-(((1-(6-amino-9H-purin-9-yl)propan-2-yl)oxy)methyl)phosphonate] was greater than 120 min; that for `CCCCCCCCCCCCCSCCCCCCOP(=O)(O)CO[C@H](C)Cn1cnc2c(N)ncnc21` [MD-1-219, Ammonium 6-(tridecylthio)hexyl (R)-(((1-(6-amino-9H-purin-9-yl)propan-2-yl)oxy)methyl) phosphonate] was 66 min.
Consider `CCCCSCCCCCCCCCCCCCCCOP(=O)(O)CO[C@H](C)Cn1cnc2c(N)ncnc21` [MD-1-221, Ammonium 15-(butylthio)pentadecyl (R)-(((1-(6-amino-9H-purin-9-yl)propan-2-yl)oxy)methyl) phosphonate], for which the IC50 in data set [2] (setting [4]) and in data set [3] (setting [5]) was greater than 20 µM each time.
